In patent EP4722219A1 (Gan & Lee Pharmaceuticals Co., Ltd., priority 2023, dated 2024):

Tests used:
Format in all cases: cell-based
ERα [1] = biological target: T1, ERα (Homo sapiens, UniProt P03372); assay: ERα degradation in T-47D cells (Western blot); settings: 4 hours
T1 sequence (P03372 1-595): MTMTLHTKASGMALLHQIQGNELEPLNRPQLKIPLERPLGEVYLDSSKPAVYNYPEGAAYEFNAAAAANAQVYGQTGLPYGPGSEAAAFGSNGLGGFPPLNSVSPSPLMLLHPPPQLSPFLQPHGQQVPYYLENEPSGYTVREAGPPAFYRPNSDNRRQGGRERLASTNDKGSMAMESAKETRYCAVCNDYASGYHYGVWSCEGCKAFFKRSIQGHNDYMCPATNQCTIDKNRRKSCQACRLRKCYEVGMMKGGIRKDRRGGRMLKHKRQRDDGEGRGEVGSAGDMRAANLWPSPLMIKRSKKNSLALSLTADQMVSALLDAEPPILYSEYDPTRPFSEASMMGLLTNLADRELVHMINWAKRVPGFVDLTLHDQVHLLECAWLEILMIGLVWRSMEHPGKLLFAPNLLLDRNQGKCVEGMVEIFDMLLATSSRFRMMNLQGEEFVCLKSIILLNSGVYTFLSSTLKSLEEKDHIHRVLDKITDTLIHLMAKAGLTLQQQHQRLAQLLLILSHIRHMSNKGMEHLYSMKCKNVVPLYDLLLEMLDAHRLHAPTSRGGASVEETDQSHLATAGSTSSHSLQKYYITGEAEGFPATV
How it was run: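 T-47D cells at 3×10^5 cells/well were exposed to compound (final 0.15-1000 nM, DMSO) for 4 hours at 37°C and then lysed in RIPA. ERα was measured by Western blot (20 µg protein) with infrared imaging. The degradation rate was calculated from ERα/internal-reference grayscale ratios relative to control.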

T-47D cells = assay: Inhibition of cell proliferation in T-47D cells (CCK-8); settings: 6 days treatment, CCK-8 cell viability
How it was run: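 T-47D cells (3,000/well) in RPMI-1640 with 10% FBS were exposed to a concentration range of PROTAC compounds for 6 days at 37 °C, 5% CO2. Viability read by CCK-8; IC50 fitted from inhibition rate.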

ERα [2] = biological target: T1, ERα; assay: ERα degradation in MCF-7 cells (Western blot); design: host or cells: MCF-7; settings: 4 hours
How it was run: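 MCF-7 cells treated 4 h at 37 °C with compound at 0.15–1000 nM final. ERα in lysates measured by Western blot (20 µg protein), normalized to an internal reference protein; degradation rate calculated against control.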

MCF-7 cells = assay: Inhibition of cell proliferation in MCF-7 cells (CCK-8); settings: MCF-7 cell proliferation, 6 days treatment
How it was run: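 MCF-7 cells, 800 per well in DMEM plus 10% FBS, exposed to graded PROTAC concentrations for 6 days at 37 °C, 5% CO2. Viability by CCK-8; IC50 fitted from inhibition rates.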

| Compound | Degradation rate of ERα in T-47D cells (%) (ERα [1]; 1nM) | Degradation rate of ERα in T-47D cells (%) (ERα [1]; 10nM) | IC50 (T-47D cells) [nM] | Degradation rate of ERα in MCF-7 cells (%) (ERα [2]; 1nM) | Degradation rate of ERα in MCF-7 cells (%) (ERα [2]; 10nM) | IC50 (MCF-7 cells) [nM] | IC50 (T-47D cells; Homo sapiens, T47D, 144 h) [nM] | IC50 (MCF-7 cells; Homo sapiens, MCF7, 144 h) [nM] |
| --- | --- | --- | --- | --- | --- | --- | --- | --- |
| O=C1CC[C@H](NC(=O)c2ccc3c(c2)OCC[C@H]2CN(CC4CCC(OC5CCN(c6ccc([C@@H]7c8ccc(O)cc8CC[C@@H]7c7ccccc7)cc6)CC5)CC4)CCN32)C(=O)N1 (stereo partly drawn) [ER-P-45, (S)-N-((S)-2,6-dioxopiperidin-3-yl)-3-((4-((1-(4-((1R,2S)-6-hydroxy-2-phenyl-1,2,3,4-tetrahydronaphthalen-1-yl)phenyl)piperidin-4-yl)oxy)cyclohexyl)methyl)-2,3,4,4a,5,6-hexahydro-1H-benzo[b]pyrazino[1,2-d][1,4]oxazepine-9-carboxamide] | -5 | -3 | 1.48 | -15 | -24 | 1630 | – | – |
| O=C1CCC(Nc2ccc3c(c2)COC[C@H]2CN(CC4CCC(OC5CCN(c6ccc([C@@H]7c8ccc(O)cc8CC[C@@H]7c7ccccc7)cc6)CC5)CC4)CCN32)C(=O)N1 (single isomer, unassigned) [ER-P-50] | 4 | 18 | – | 1 | 9 | 3270 | 45.6 | – |
| O=C1CCC(Nc2ccc3c(c2)OCC2(CCN(C[C@H]4CC[C@@H](OC5CCN(c6ccc([C@@H]7c8ccc(O)cc8CC[C@@H]7c7ccccc7)cc6)CC5)CC4)CC2)C3)C(=O)N1 (stereo partly drawn) [ER-P-41] | 17 | 21 | – | 13 | 15 | – | 37.3 | 377 |
| O=C1CCC(N2Cc3c(ccc4c3OCC43CCC4(CCN(C5CCC6(CC5)CN(c5ccc([C@@H]7c8ccc(O)cc8CC[C@@H]7c7ccccc7)cc5)C6)CC4)CC3)C2=O)C(=O)N1 (stereo partly drawn) [ER-P-2] | 26 | 54 | – | 7 | 48 | – | 2.02 | 62.6 |
| Cn1c(=O)n(C2CCC(=O)NC2=O)c2ccc3c(c21)OCC31CCN(C2CCN(C(=O)C3CCN(c4ccc([C@@H]5c6ccc(O)cc6CC[C@@H]5c5ccccc5)cc4)CC3)CC2)CC1 (stereo partly drawn) [ER-P-13, 3-(1'-(1-(1-(4-((1R,2S)-6-hydroxy-2-phenyl-1,2,3,4-tetrahydronaphthalen-1-yl)phenyl)piperidine-4-carbonyl)piperidin-4-yl)-1-methyl-2-oxo-1,2-dihydro-3H,7H-spiro[benzofuro[6,7-d]imidazole-6,4'-piperidin]-3-yl)piperidine-2,6-dione] | 79 | 74 | – | 72 | 85 | – | 0.47 | 18.9 |
| (S)-N-((S)-2,6-dioxopiperidin-3-yl)-3-(((1S,4R)-4-((1-(4-((1R,2S)-6-hydroxy-2-phenyl-1,2,3,4-tetrahydronaphthalen-1-yl)phenyl)piperidin-4-yl)oxy)cyclohexyl)methy l)-1,2,3,4,4a,5-hexahydrobenzo[b]pyrazi no[1,2-d][1,4]oxazine-8-carboxamide [ER-P-47] | -14 | 25 | 1.47 | 21 | 26 | 8430 | – | – |
